Measurements taken from PubChem BioAssay (NCI).
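Cells were grown in 96-well plates and exposed to each compound for 48 hours at five concentrations; endpoints were interpolated linearly between bracketing concentrations, or set to the highest concentration if not reached. Abbreviation: GI50, concentration required for 50% inhibition of growth. The concentration for full growth arrest is given as TGI.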

Legend:
Experiment in all cases: NCI anticancer screen, dose series, 48 h
786-0 renal = test system: 786-0 renal
A498 renal = test system: A498 renal
A549 NSCLC = test system: A549 NSCLC
ACHN renal = test system: ACHN renal
BT-549 breast = test system: BT-549 breast
CAKI-1 renal = test system: CAKI-1 renal
CCRF-CEM leukemia = test system: CCRF-CEM leukemia
COLO 205 colon = test system: COLO 205 colon
DU-145 prostate = test system: DU-145 prostate
EKVX NSCLC = test system: EKVX NSCLC
HCC-2998 colon = test system: HCC-2998 colon
HCT-116 colon = test system: HCT-116 colon
HCT-15 colon = test system: HCT-15 colon
HL-60(TB) leukemia = test system: HL-60(TB) leukemia
HOP-62 NSCLC = test system: HOP-62 NSCLC
HOP-92 NSCLC = test system: HOP-92 NSCLC
HS 578T breast = test system: HS 578T breast
HT29 colon = test system: HT29 colon
IGROV1 ovarian = test system: IGROV1 ovarian
K-562 leukemia = test system: K-562 leukemia
KM12 colon = test system: KM12 colon
LOX IMVI melanoma = test system: LOX IMVI melanoma
M14 melanoma = test system: M14 melanoma
MALME-3M melanoma = test system: MALME-3M melanoma
MCF7 breast = test system: MCF7 breast
MDA-MB-231 breast = test system: MDA-MB-231 breast
MDA-MB-435 = test system: MDA-MB-435
MOLT-4 leukemia = test system: MOLT-4 leukemia
NCI-H226 lung = test system: NCI-H226 lung
NCI-H23 lung = test system: NCI-H23 lung
NCI-H460 lung = test system: NCI-H460 lung
NCI-H522 lung = test system: NCI-H522 lung
NCI/ADR-RES ovarian = test system: NCI/ADR-RES ovarian
OVCAR-3 ovarian = test system: OVCAR-3 ovarian
OVCAR-4 ovarian = test system: OVCAR-4 ovarian
OVCAR-5 ovarian = test system: OVCAR-5 ovarian
OVCAR-8 ovarian = test system: OVCAR-8 ovarian
PC-3 prostate = test system: PC-3 prostate
RPMI-8226 leukemia = test system: RPMI-8226 leukemia
RXF 393 renal = test system: RXF 393 renal
SF-268 CNS = test system: SF-268 CNS
SF-295 CNS = test system: SF-295 CNS
SF-539 CNS = test system: SF-539 CNS
SK-MEL-28 melanoma = test system: SK-MEL-28 melanoma
SK-MEL-5 melanoma = test system: SK-MEL-5 melanoma
SK-OV-3 ovarian = test system: SK-OV-3 ovarian
SN12C renal = test system: SN12C renal
SNB-19 CNS = test system: SNB-19 CNS
SNB-75 CNS = test system: SNB-75 CNS
SR leukemia = test system: SR leukemia
SW-620 colon = test system: SW-620 colon
TK-10 renal = test system: TK-10 renal
U251 CNS = test system: U251 CNS
UACC-257 melanoma = test system: UACC-257 melanoma
UACC-62 melanoma = test system: UACC-62 melanoma
UO-31 renal = test system: UO-31 renal

With `CCOC(=O)N[C@H]1CCc2c(Br)c(OC)c(OC)c(OC)c2-c2ccc(SC)c(=O)cc21` the GI50 (786-0 renal) was 31.8 nM, the TGI (786-0 renal) was 25.1 µM and the GI50 (A498 renal) was less than 10 nM. The TGI (A498 renal) was less than 11.5 nM, the GI50 (A549 NSCLC) was less than 18.4 nM and the TGI (A549 NSCLC) was greater than 43 µM. It also gave a GI50 (ACHN renal) of less than 10 nM, a TGI (ACHN renal) of 15 µM and a GI50 (BT-549 breast) of 11.5 nM. The TGI (BT-549 breast) was 8.97 µM, the GI50 (CAKI-1 renal) was less than 22.8 nM and the TGI (CAKI-1 renal) was 19.6 µM. For the same molecule, the GI50 (CCRF-CEM leukemia) was less than 10 nM, the TGI (CCRF-CEM leukemia) was greater than 42 µM and the GI50 (COLO 205 colon) was less than 10 nM. It also gave a TGI (COLO 205 colon) of 16.1 nM, a GI50 (DU-145 prostate) of less than 10 nM and a TGI (DU-145 prostate) of 125 nM. The GI50 (EKVX NSCLC) was less than 11.2 nM, the TGI (EKVX NSCLC) was greater than 83.2 µM and the GI50 (HCC-2998 colon) was less than 15.5 nM. The TGI (HCC-2998 colon) was 1410 nM, the GI50 (HCT-116 colon) was less than 10 nM and the TGI (HCT-116 colon) was 11.8 µM. For the same molecule, the GI50 (HCT-15 colon) was less than 10 nM, the TGI (HCT-15 colon) was 12.2 µM and the GI50 (HL-60(TB) leukemia) was less than 10 nM. For the same molecule, the TGI (HL-60(TB) leukemia) was 13.1 nM, the GI50 (HOP-62 NSCLC) was 23.2 nM and the TGI (HOP-62 NSCLC) was 41.2 µM. For the same molecule, the GI50 (HOP-92 NSCLC) was less than 13.7 nM, the TGI (HOP-92 NSCLC) was 6.19 µM and the GI50 (HS 578T breast) was less than 10 nM. For the same molecule, the TGI (HS 578T breast) was 37.3 µM, the GI50 (HT29 colon) was less than 10 nM and the TGI (HT29 colon) was greater than 34.5 µM. It also gave a GI50 (IGROV1 ovarian) of 18.9 nM, a TGI (IGROV1 ovarian) of 16.2 µM and a GI50 (K-562 leukemia) of less than 10 nM. It also gave a TGI (K-562 leukemia) greater than 38.2 µM, a GI50 (KM12 colon) of less than 10 nM and a TGI (KM12 colon) of 3.79 µM. For the same molecule, the GI50 (LOX IMVI melanoma) was less than 10 nM, the TGI (LOX IMVI melanoma) was 12.5 µM and the GI50 (M14 melanoma) was less than 12.8 nM. It also gave a TGI (M14 melanoma) of 4.35 µM, a GI50 (MALME-3M melanoma) of less than 10 nM and a TGI (MALME-3M melanoma) of 28.4 µM. The GI50 (MCF7 breast) was less than 10 nM, the TGI (MCF7 breast) was 12.7 µM and the GI50 (MDA-MB-231 breast) was less than 10 nM. The TGI (MDA-MB-231 breast) was 5.17 µM, the GI50 (MDA-MB-435) was less than 10 nM and the GI50 (MOLT-4 leukemia) was less than 10.8 nM. The TGI (MOLT-4 leukemia) was greater than 45.3 µM, the GI50 (NCI-H226 lung) was less than 16.5 nM and the TGI (NCI-H226 lung) was 13.9 µM. For the same molecule, the GI50 (NCI-H23 lung) was less than 10 nM, the TGI (NCI-H23 lung) was 24 µM and the GI50 (NCI-H460 lung) was less than 10 nM. For the same molecule, the TGI (NCI-H460 lung) was 1610 nM, the GI50 (NCI-H522 lung) was less than 10 nM and the TGI (NCI-H522 lung) was 10.1 µM. For the same molecule, the GI50 (NCI/ADR-RES ovarian) was 25 nM, the TGI (NCI/ADR-RES ovarian) was 7.58 µM and the GI50 (OVCAR-3 ovarian) was less than 10 nM. It also gave a GI50 (OVCAR-4 ovarian) of 60.8 nM, a TGI (OVCAR-4 ovarian) greater than 53.5 µM and a GI50 (OVCAR-5 ovarian) of 35.7 nM. It also gave a TGI (OVCAR-5 ovarian) of 25.6 µM, a GI50 (OVCAR-8 ovarian) of 23.4 nM and a TGI (OVCAR-8 ovarian) greater than 56.4 µM. The GI50 (PC-3 prostate) was less than 10 nM, the TGI (PC-3 prostate) was greater than 44.5 µM and the GI50 (RPMI-8226 leukemia) was less than 10 nM. It also gave a TGI (RPMI-8226 leukemia) greater than 33.7 µM, a GI50 (RXF 393 renal) of less than 10 nM and a TGI (RXF 393 renal) of 13.8 µM. It also gave a GI50 (SF-268 CNS) of 12.5 nM, a TGI (SF-268 CNS) of 15 µM and a GI50 (SF-295 CNS) of less than 10 nM. The TGI (SF-295 CNS) was 3.79 µM, the GI50 (SF-539 CNS) was less than 10 nM and the TGI (SF-539 CNS) was less than 10.6 nM. It also gave a GI50 (SK-MEL-28 melanoma) of 8.06 µM, a TGI (SK-MEL-28 melanoma) of 23.4 µM and a GI50 (SK-MEL-5 melanoma) of less than 10 nM. It also gave a TGI (SK-MEL-5 melanoma) of 23.7 nM, a GI50 (SK-OV-3 ovarian) of less than 10 nM and a TGI (SK-OV-3 ovarian) of 59.4 µM. For the same molecule, the GI50 (SN12C renal) was less than 17.8 nM, the TGI (SN12C renal) was 19.8 µM and the GI50 (SNB-19 CNS) was less than 10 nM. It also gave a TGI (SNB-19 CNS) of 26.5 µM, a GI50 (SNB-75 CNS) of less than 10 nM and a TGI (SNB-75 CNS) of 16.1 µM. It also gave a GI50 (SR leukemia) of less than 10 nM, a TGI (SR leukemia) greater than 37.3 µM and a GI50 (SW-620 colon) of less than 10 nM. It also gave a TGI (SW-620 colon) of 16.7 µM, a GI50 (TK-10 renal) of 3.8 µM and a TGI (TK-10 renal) greater than 60.4 µM. It also gave a GI50 (U251 CNS) of less than 10 nM, a TGI (U251 CNS) of 14.1 µM and a GI50 (UACC-257 melanoma) of 8.64 µM. For the same molecule, the TGI (UACC-257 melanoma) was 45.2 µM, the GI50 (UACC-62 melanoma) was less than 10 nM and the TGI (UACC-62 melanoma) was 14.2 µM. It also gave a GI50 (UO-31 renal) of 131 nM and a TGI (UO-31 renal) of 15.2 µM.
